In US9051321B2, “Heterocyclic acrylamides and their use as pharmaceuticals” (FAB PHARMA S.A.S, priority 2009, dated 2015):

Assays:
HSA (human albumin) = HSA (human albumin) (Homo sapiens (Human), UniProt P02768); assay: HSA binding analysis using a chiral HSA column; format: in vitro ADME; conditions: for k′ (capacity factor): 37° C., pH 7.0, k′=(Tr-T0)/T0; for HSA binding Conclusion: classification of AB %
Text: The test system used in this analysis was an HSA chiral column.
The relationship between the retention time (Tr) and percentage of albumin binding (AB %) depended on the dead time (T0) and the capacity factor (k′): AB %=[k′/(k′+1)]*100 • where k′=(Tr-T0)/T0

[1] = test system: methicillin susceptible Staphylococcus aureus strain ATCC 29213; assay: In vivo antibacterial activity, experimental model of thigh infection in neutropenic mice; conditions: 1.5 h after infection, neutropenic female Swiss mice, 20 h
E. coli FabI = E. coli FabI (Escherichia coli (strain K12), UniProt P0AEK4); conditions: cited from earlier work
E. coli FabI, sequence (P0AEK4 whole entry): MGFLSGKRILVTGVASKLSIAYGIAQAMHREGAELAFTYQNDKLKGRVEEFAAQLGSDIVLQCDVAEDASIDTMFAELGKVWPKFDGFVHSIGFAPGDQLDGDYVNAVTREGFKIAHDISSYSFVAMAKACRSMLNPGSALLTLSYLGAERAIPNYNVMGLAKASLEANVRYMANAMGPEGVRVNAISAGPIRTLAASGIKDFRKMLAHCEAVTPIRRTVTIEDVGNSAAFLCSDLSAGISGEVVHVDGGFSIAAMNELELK

HSA (human albumin), sequence (P02768 25-609): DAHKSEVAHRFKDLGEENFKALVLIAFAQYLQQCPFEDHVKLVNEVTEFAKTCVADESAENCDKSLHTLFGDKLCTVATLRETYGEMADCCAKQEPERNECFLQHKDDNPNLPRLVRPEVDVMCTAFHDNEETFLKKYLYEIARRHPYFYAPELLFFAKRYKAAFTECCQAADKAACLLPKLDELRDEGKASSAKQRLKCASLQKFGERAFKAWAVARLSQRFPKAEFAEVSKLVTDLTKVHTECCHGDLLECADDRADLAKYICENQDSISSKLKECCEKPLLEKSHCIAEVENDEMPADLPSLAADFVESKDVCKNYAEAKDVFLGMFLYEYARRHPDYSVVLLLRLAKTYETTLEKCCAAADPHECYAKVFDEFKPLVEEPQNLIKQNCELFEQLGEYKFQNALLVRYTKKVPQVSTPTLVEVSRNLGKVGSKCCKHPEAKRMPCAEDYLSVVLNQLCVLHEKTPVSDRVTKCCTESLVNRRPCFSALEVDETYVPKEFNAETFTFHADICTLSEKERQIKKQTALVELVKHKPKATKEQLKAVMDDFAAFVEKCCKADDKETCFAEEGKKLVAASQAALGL

Structure (SMILES) | affinity in vitro to human albumin (HSA (human albumin)) | k′ (capacity factor) (HSA (human albumin)) | HSA binding Conclusion (HSA (human albumin)) | in vivo antibacterial activity (bacterial burden in the thigh of infected mice) ([1]; 50 mg/kg subcutaneously) | type of inhibition of E. coli FabI (E. coli FabI) | in vivo antibacterial activity (bacterial burden in the thigh of infected mice) ([1]; 100 mg/kg orally)
Cc1c(C2CN(C(=O)/C=C/c3cnc4c(c3)CC3(CCN(C)CC3)C(=O)N4)C2)oc2ccccc12 [Example 68, (E)-1′-Methyl-6-(3-(3-(3-methylbenzofuran-2-yl)azetidin-1-yl)-3-oxoprop-1-enyl)-1H-spiro[[1,8]naphthyridine-3,4′-piperidin]-2(4H)-one] | high affinity | 11.216 | High binding (AB≦90%: High binding) | – | – | –
CCCCCOC1CN(C(=O)/C=C/c2cnc3c(c2)CCC(=O)N3)C1 [Example 15, 6-{(1E)-3-Oxo-3-[3-(pentyloxy)azetidin-1-yl]prop-1-en-1-yl}-3,4-dihydro-1,8-naphthyridin-2(1H)-one] | – | – | – | able to protect mice against thigh dissemination | – | –
CCCO/N=C(/C)C1CN(C(=O)/C=C/c2cnc3c(c2)CCC(=O)N3)C1 [Example 71, 6-((E)-3-Oxo-3-(3-((Z)-1-(propoxyimino)ethyl)azetidin-1-yl)prop-1-enyl)-3,4-dihydro-1,8-naphthyridin-2(1H)-one] | low affinity | 0.404 | Low binding (AB≦75%: Low binding) | – | – | –
O=C1CCc2cc(/C=C/C(=O)N3CC(c4cc5ccccc5o4)C3)cnc2N1 [Example 59, (E)-6-(3-(3-(Benzofuran-2-yl)azetidin-1-yl)-3-oxoprop-1-enyl)-3,4-dihydro-1,8-naphthyridin-2(1H)-one] | moderate affinity | 4.678 | Moderate | – | – | –
CCCCOC1CN(C(=O)/C=C/c2cnc3c(c2)CC2(CCN(C)CC2)C(=O)N3)C1 [Example 63, (E)-6-(3-(3-Butoxyazetidin-1-yl)-3-oxoprop-1-enyl)-1′-methyl-1H-spiro[[1,8]naphthyridine-3,4′-piperidin]-2(4H)-one] | low affinity | 1.288 | Low binding (AB≦75%: Low binding) | – | – | –
Oc1cc(Cl)ccc1Oc1ccc(Cl)cc1Cl [Triclosan] | – | – | – | – | reversible, tight-binding inhibitor | –
CCCO/N=C(\C)C1CN(C(=O)/C=C/c2cnc3c(c2)CCC(=O)N3)C1 [Example 70, 6-((E)-3-Oxo-3-(3-((E)-1-(propoxyimino)ethyl)azetidin-1-yl)prop-1-enyl)-3,4-dihydro-1,8-naphthyridin-2(1H)-one] | low affinity | 0.580 | Low binding (AB≦75%: Low binding) | – | – | –
O=C1CCc2cc(/C=C/C(=O)N3CC(OCc4cccs4)C3)cnc2N1 [Example 12, 6-{(1E)-3-Oxo-3-[3-(2-thienylmethoxy)azetidin-1-yl]prop-1-en-1-yl}-3,4-dihydro-1,8-naphthyridin-2(1H)-one] | low affinity | 0.826 | Low binding (AB≦75%: Low binding) | – | – | able to protect mice against thigh dissemination
Cc1c(C2CN(C(=O)/C=C/c3cnc4c(c3)CCC(=O)N4)C2)oc2ccccc12 [Example 67, (E)-6-(3-(3-(3-Methylbenzofuran-2-yl)azetidin-1-yl)-3-oxoprop-1-enyl)-3,4-dihydro-1,8-naphthyridin-2(1H)-one] | moderate affinity | 8.360 | Moderate | – | – | –
O=C1CCc2cc(/C=C/C(=O)N3CC(OCCc4cccs4)C3)cnc2N1 [Example 29, (E)-6-(3-Oxo-3-(3-(2-(thiophen-2-yl)ethoxy)azetidin-1-yl)prop-1-enyl)-3,4-dihydro-1,8-naphthyridin-2(1H)-one] | low affinity | 1.259 | Low binding (AB≦75%: Low binding) | – | – | –
CN1CCC2(CC1)Cc1cc(/C=C/C(=O)N3CC(c4cc5ccccc5o4)C3)cnc1NC2=O [Example 69, (E)-6-(3-(3-(Benzofuran-2-yl)azetidin-1-yl)-3-oxoprop-1-en-1-yl)-1′-methyl-1H-spiro[[1,8]naphthyridine-3,4′-piperidin]-2(4H)-one] | moderate affinity | 7.730 | Moderate | – | – | –
